Test results reported in ChEMBL document CHEMBL1201862, “PubChem BioAssay data set” (2004).
Calls of active or inactive are those of the source.

Columns and labels:
[1] = viability of PTEN-deleted HCT116 cells – cell-based, HCT116 PTEN knockout, dose response (AID 1047); format: functional;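 further: HCT116 colon tumor cells with PTEN knocked out; cells exposed to compound for 60 hours before readout; potency for loss of cell viability measured by luminescence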
[2] = viability of HCT116 lacking mutant beta-catenin – cell-based, human colon tumor, dose response (AID 1045); format: functional;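 further: HCT116 colon tumor cells with beta catenin knocked out; cells exposed to compound for 60 hours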
Large T antigen = Large T antigen (Simian virus 40, UniProt P03070); format: functional, Betapolyomavirus macacae;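 further: Confirmatory-stage PubChem screen for compounds that inhibit SV40 T antigen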
[3] = target: T1, Sentrin-specific protease 8 (Homo sapiens, UniProt Q96LD8); format: functional
T1 sequence (Q96LD8 whole entry): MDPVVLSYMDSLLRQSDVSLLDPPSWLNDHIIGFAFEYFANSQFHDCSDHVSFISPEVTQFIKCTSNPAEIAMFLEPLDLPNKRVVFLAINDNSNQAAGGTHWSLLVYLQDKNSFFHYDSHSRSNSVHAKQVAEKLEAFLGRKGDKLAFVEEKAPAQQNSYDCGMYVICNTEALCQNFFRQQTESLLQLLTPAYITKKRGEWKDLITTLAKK

[4] = target: T1, Sentrin-specific protease 8; format: functional; remark: listed apart in the source
[5] = reduction of Shn3 3'UTR-driven luciferase in osteoblasts – cell-based, Clone20 osteoblasts, firefly luciferase, cherry-picked, dose response (AID 624132); format: functional;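 further: firefly luciferase luminescence from reporter carrying the Shn3 3'UTR in osteoblasts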
[6] = loss of viability in HepG2 cells – cell-based, CellTiter-Glo, cherry-picked, cytotoxicity control for Shn3 inhibitor project, dose response (AID 624134); format: functional
[7] = target: T2, Carboxy-terminal domain RNA polymerase II polypeptide A small phosphatase 1 (Homo sapiens, UniProt Q9GZU7); assay: CTDSP1 inhibitors, concentration-response, biochemical, absorbance readout, ultra-high-throughput screen actives (AID 540297); format: functional
T2 sequence (Q9GZU7 whole entry): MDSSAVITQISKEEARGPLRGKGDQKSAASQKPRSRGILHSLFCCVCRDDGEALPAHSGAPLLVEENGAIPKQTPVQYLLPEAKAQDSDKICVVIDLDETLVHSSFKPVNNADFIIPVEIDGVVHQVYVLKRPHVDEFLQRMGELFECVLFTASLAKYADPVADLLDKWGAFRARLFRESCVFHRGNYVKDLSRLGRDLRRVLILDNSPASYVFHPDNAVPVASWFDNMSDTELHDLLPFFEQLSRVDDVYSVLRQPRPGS

[8] = Trypanosoma cruzi growth suppression in host cells – NIH3T3 host cells, beta-gal luminescence, confirmation (AID 2044); format: functional, cell-based;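 further: intracellular parasites grown in NIH/3T3 mouse fibroblasts as host cells; luminescent beta-galactosidase reporter signal from transgenic T. cruzi replicating inside host cells; inhibitors lower the luminescence signal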
[9] = NIH3T3 cell viability loss – ATP luminescence, mouse fibroblasts, counter-screen, dose response (AID 2010); format: functional, cell-based;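 further: cells exposed to compound for about 90 hours before reading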
cells = format: functional
[10] = non-specific 3'UTR reporter inhibition in Clone20-Shn3RL – cell-based, Renilla luciferase, cherry-picked, counter-screen for Shn3 inhibitor project, dose response (AID 624133); format: functional
[11] = target: T3, Microphthalmia-associated transcription factor (Homo sapiens, UniProt O75030); assay: reducers of TRPM1 reporter luminescence, concentration series – cell-based, SK-MEL-5, cherry-picked, set 3, MITF inhibitor project, dose response (AID 493073); format: functional;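 further: SK-MEL-5 melanoma cells with luciferase driven by the MITF target TRPM1 promoter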
T3 sequence (O75030 whole entry): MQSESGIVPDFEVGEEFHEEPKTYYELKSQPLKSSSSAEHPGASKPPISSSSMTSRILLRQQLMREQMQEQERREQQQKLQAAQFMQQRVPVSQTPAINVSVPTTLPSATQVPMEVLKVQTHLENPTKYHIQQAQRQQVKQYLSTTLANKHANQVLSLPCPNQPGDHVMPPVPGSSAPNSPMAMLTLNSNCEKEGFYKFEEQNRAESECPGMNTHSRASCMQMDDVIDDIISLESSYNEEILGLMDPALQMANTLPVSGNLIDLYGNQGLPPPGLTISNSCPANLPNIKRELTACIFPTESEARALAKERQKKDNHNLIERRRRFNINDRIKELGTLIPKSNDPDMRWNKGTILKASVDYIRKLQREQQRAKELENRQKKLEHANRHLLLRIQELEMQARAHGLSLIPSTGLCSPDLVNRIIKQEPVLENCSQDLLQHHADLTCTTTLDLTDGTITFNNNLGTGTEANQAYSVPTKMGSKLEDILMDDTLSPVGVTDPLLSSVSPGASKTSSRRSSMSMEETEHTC

[12] = Luminescence Cell-Based Dose Retest to Confirm Inhibitors of Cancer Stem Cells. [Related pubchem assays (depositor defined):AID2717, AID2721]; format: functional; conditions: Homo sapiens
H4 = assay: Luminescence Cell-Based Dose Response HTS to Identify Activators of 5'UTR Stem-Loop Driven Prion Protein mRNA Translation in H4 Neuroglioblastoma Cells. [Related pubchem assays: 1829 (Project Summary), 1814 (Primary HTS)]; format: functional; conditions: Homo sapiens
[13] = Luminescence Cell-Based Dose Confirmation HTS to Identify Activators of 5'UTR Stem-Loop Driven Alpha-Synuclein mRNA Translation in H4 Neuroglioblastoma Cells. [Related pubchem assays: 1829 (Project Summary), 1814 (Primary HTS)]; format: functional
[14] = Luminescence Cell-Based Dose Response HTS to Identify Activators of Luciferase Translation or Activity in H4 […] Cells. [Related pubchem assays: 1829 (Project Summary), 1814 (Primary HTS)]; format: functional
[15] = target: FAD-linked sulfhydryl oxidase ALR (Homo sapiens, UniProt P55789); assay: ALR-catalysed DTT oxidation blockers – biochemical, H2O2 detection, luminescence, cherry-pick, dose response (AID 493248)
INS1 = assay: INS-1E survival protection against cytokine death – cell-based, luminescence, retest, dose response (AID 449756); format: functional; conditions: Rattus norvegicus;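 further: cell death triggered by IL-1 beta plus TNF-alpha plus IFN-gamma mixture; protective hits raise ATP signal compared with cytokine alone wells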
[16] = microbe, parasite or virus in culture; format: functional; conditions: Mycobacterium tuberculosis
[17] = alpha-synuclein stem-loop luciferase translation blockers – H4 neuroglioma cells, luminescence, confirmation (AID 1988); format: functional, cell-based
H9c2 = assay: cells; format: functional, cell-based; conditions: Rattus norvegicus, H9c2, Myocardium;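 further: confirmatory concentration-response retest of ultra-high-throughput screening hits for modulation of myocardial damage; cell death induced by hydrogen peroxide oxidative stress; compound pretreatment for 60 min then peroxide exposure for 2 h; potency is for protecting the cells against peroxide damage rather than for killing them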
[18] = luciferase reporter signal suppression in cells – H4 neuroglioma cells, luminescence, dose response (AID 1990); format: functional, cell-based
[19] = Luminescence Cell-Based Dose Response HTS to Identify Inhibitors of 5'UTR Stem-Loop Driven Prion Protein mRNA Translation in H4 Neuroglioblastoma Cells. [Related pubchem assays: 1827 (Project Summary), 1813 (Primary HTS)]; format: functional
[20] = target: T4, Rac GTPase-activating protein 1 (Homo sapiens, UniProt Q9H0H5); assay: blockers of MgcRacGAP-driven Rac1 GTP hydrolysis – biochemical, ADP Hunter fluorescence, primary and confirmatory, confirmation (AID 624330); format: functional
T4 sequence (Q9H0H5 whole entry): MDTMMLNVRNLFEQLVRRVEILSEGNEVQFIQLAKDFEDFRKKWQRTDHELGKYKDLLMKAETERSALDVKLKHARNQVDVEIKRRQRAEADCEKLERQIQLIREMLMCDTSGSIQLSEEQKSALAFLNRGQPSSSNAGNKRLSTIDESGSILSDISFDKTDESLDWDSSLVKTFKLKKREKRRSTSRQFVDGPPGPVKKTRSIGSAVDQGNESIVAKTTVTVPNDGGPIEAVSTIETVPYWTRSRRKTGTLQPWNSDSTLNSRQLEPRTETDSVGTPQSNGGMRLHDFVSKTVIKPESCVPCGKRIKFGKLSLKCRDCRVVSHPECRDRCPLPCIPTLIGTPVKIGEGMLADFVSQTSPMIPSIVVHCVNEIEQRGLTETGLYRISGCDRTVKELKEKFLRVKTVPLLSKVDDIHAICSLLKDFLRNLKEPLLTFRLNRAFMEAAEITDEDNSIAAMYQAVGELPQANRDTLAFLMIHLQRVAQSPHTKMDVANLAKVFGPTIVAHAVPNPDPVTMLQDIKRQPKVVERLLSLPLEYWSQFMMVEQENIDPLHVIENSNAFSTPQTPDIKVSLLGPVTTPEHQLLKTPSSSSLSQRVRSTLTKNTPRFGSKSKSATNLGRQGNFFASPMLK

Sequence of Large T antigen (P03070 whole entry): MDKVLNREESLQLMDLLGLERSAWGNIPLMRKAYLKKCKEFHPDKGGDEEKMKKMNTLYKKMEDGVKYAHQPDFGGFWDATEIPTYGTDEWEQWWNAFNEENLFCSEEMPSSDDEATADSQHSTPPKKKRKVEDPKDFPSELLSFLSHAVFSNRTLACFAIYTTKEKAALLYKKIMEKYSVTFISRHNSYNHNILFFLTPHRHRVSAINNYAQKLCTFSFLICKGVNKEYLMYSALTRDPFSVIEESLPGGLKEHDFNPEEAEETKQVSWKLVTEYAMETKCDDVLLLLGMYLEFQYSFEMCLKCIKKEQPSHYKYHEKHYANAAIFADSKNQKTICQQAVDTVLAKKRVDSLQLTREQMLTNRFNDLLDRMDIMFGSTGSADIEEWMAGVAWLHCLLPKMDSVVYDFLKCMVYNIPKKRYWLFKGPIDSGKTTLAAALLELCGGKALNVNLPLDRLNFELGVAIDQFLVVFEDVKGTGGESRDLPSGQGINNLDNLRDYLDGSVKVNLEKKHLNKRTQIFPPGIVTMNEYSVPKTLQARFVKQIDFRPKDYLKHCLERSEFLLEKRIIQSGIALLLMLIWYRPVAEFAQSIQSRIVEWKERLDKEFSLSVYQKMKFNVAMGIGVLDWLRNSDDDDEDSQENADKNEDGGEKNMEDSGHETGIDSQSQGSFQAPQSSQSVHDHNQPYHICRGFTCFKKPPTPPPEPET
Sequence of FAD-linked sulfhydryl oxidase ALR (P55789 whole entry): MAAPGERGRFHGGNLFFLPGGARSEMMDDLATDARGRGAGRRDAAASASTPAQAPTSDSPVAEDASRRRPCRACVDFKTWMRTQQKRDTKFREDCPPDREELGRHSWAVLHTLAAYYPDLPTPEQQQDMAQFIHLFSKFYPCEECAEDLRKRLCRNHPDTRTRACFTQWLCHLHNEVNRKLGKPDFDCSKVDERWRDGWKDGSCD

Cc1cc(S(=O)(=O)N2CCN(Cc3ccc4c(c3)OCO4)CC2)cc(C)c1N1CCCC1=O
EC50 [1]: 45.7 µM (active) | EC50 [2]: 36 µM (active)

CN(C)c1ccc(Nc2cc(Cl)ncn2)cc1
IC50 (Large T antigen): 7.46 µM (active)

CN(c1ccc(C(=O)N2CCc3ccccc3C2)cc1)S(C)(=O)=O
IC50 [3]: 90.5 µM (inactive) | IC50 [4]: 13.1 µM (active)

COC(=O)CCC(=O)OC1(C)C(=O)C=C2C=C3CCCN3C=C2C1=O (stereo not drawn)
IC50 [3]: 6.06 µM (active) | IC50 [4]: 7.67 µM (active)

CCOC(=O)CNc1c(-c2ccc(O)cc2)nc2ccc(Cl)cn12
IC50 (Large T antigen): 15.9 µM (active)

COc1ccc(Nc2nc(N)nc(CN3CCC(Cc4ccccc4)CC3)n2)cc1
EC50 [1]: 17.7 µM (active) | EC50 [2]: 23.5 µM (active)

CC(C)(C)OC(=O)NCc1ccc(CNC(=O)c2nc[nH]c2C(=O)NCc2ccc(CNC(=O)OC(C)(C)C)cc2)cc1
AC50 [5]: 5.89 µM (active) | AC50 [6]: > 70 µM (inactive)

O=C(/C=C/c1ccco1)N1CCN(S(=O)(=O)c2ccccc2)CC1
IC50 [7]: 4.94 µM (active)

CC(NC(=O)Nc1cccc([N+](=O)[O-])c1)(C(F)(F)F)C(F)(F)F
EC50 [1]: 12 µM (active) | EC50 [2]: 12.3 µM (active)

Cc1ccc(C(NC(=O)C2CCCCC2)c2c(O)ccc3ccccc23)cc1 (stereo not drawn)
EC50 [1]: 17.4 µM (active) | EC50 [2]: 21.5 µM (active)

COc1ccc2c(c1)sc(=N)n2C
EC50 [8]: 0.122 µM (active) | EC50 [9]: > 60 µM (inconclusive) | IC50 (cells): 30 µM (active)

COc1ccccc1N=C(N)Nc1nc(O)cc(CSc2ccc(C)cc2)n1
AC50 [5]: 2.95 µM (active) | AC50 [10]: 12.4 µM (active) | AC50 [6]: 59.8 µM (active)

COc1ccccc1N(CC(=O)NCc1ccco1)S(=O)(=O)c1ccc(C)cc1
IC50 [7]: 5.17 µM (active)

NC(=S)NNc1cccc2cccnc12
IC50 [3]: 7.91 µM (active) | IC50 [4]: 6 µM (active)

CC1CC(C)CN(C(=O)/C=C/c2ccc([N+](=O)[O-])s2)C1 (stereo not drawn)
AC50 [11]: 11.9 µM (active)

Cc1ccc(C(=O)OCC(=O)c2ccc(CC(=O)N3CCOCC3)s2)cc1C
IC50 [7]: 5.01 µM (active)

COc1ccc(C2c3ccc4ccccc4c3Oc3ncn(Cc4ccco4)c(=N)c32)cc1OC (stereo not drawn)
EC50 [1]: 7.09 µM (active) | AC50 [12]: 3.94 µM (active) | EC50 [2]: 8.96 µM (active)

Cc1csc(Nc2ccccc2)[n+]1-c1ccccc1
EC50 (H4): 6.74 µM (active) | EC50 [13]: > 120 µM (not active) | EC50 [14]: > 30 µM (not active) | AC50 [15]: 1.14 µM (active)

O=C(CCN1CCCCCC1)c1ccccc1
IC50 (cells): 41 µM (active) | AC50 [15]: 5.85 µM (active)

O=C(/C=C/c1ccc(Cl)cc1)NC(=S)Nc1ccccc1C(=O)O
IC50 [7]: 8.66 µM (active)

CNc1nnc(Sc2ncccc2[N+](=O)[O-])s1
IC50 (cells): 7.5 µM (active)

Cc1ccc(C#CC[N+]2(CC#Cc3ccc(C)cc3)CCCCC2)cc1
EC50 [8]: 0.344 µM (active) | EC50 [9]: > 60 µM (inconclusive) | AC50 [11]: 3.95 µM (active) | AC50 (INS1): 2.04 µM (active) | CC50 [16]: > 40 µM (active)

CC(Oc1ccc(F)cc1)C(=O)Nc1nc(-c2ccccn2)cs1 (stereo not drawn)
EC50 [17]: > 120 µM (not active) | AC50 [11]: 9.42 µM (active) | IC50 (H9c2): > 79 µM (inactive) | EC50 [18]: > 120 µM (not active) | EC50 [19]: 10.2 µM (active)

CC(=O)N(CCc1ccccc1)c1ccc2c(c1)C1CC2CCN1C(=O)OCc1ccccc1 (stereo not drawn)
AC50 [5]: 14.3 µM (active) | AC50 [6]: > 70 µM (inactive)

Cn1nc(C(C)(C)C)cc1C(=O)N1CCCCC1c1cc(C(=O)Nc2ccc(F)c(Cl)c2)no1 (stereo not drawn)
AC50 [5]: 3.04 µM (active) | AC50 [10]: 5.06 µM (active) | AC50 [6]: 5.09 µM (active)

CCS(=O)(=O)N1CCCC(C(=O)N2CCc3ccccc3C2)C1 (stereo not drawn)
IC50 [3]: 71.7 µM (inactive) | IC50 [4]: 17.7 µM (active)

O=C(N/N=C/c1ccc(O)cc1O)/C(=C/c1ccccc1)CCO
IC50 (Large T antigen): 19.4 µM (active) | AC50 [12]: 6.81 µM (active) | AC50 (INS1): 2.11 µM (active)

COc1cc(/C=N/NC(=O)Cn2nnc3ccccc32)ccc1O
IC50 [20]: 24.3 µM (active) | IC50 (Large T antigen): 6.59 µM (active)

O=C(CNC(=O)c1ccccc1)N/N=C/c1ccc([N+](=O)[O-])s1
EC50 [8]: 0.285 µM (active) | EC50 [9]: 12.7 µM (active) | AC50 [11]: 5.34 µM (active)

COc1ccc(/C=N/NC(=O)c2cccc(NC(=O)c3ccc(Cl)cc3)c2)c(OC)c1
IC50 [7]: 6.27 µM (active)

COc1cc(/C=N/NC(=O)CSc2ccccn2)ccc1O
IC50 (Large T antigen): 9.69 µM (active)

COc1cc(/C=N/NC(=O)CNc2nnc(O)nc2O)ccc1O
IC50 [20]: 35.9 µM (active) | IC50 (Large T antigen): 8.93 µM (active)
